# Data taken from US20070027150A1 (priority 2005, published 2007).
# Biological target: His-tagged N-terminal ATP binding domain (amino acid residues 9-236) of HSP90α (Homo sapiens, UniProt P07900)
# Test: HSP90 inhibitor binding potency: TRF competition binding assay
# Conditions: Table I; read-out: Hsp90 IC50 Range
# Method in brief: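 Competition against biotinylated radicicol for binding to the His-tagged 9-236 ATP domain of HSP90α: 2 h, room temperature, HEPES/MgCl2/KCl/BSA buffer. Streptavidin capture, then europium-labeled anti-His antibody and enhancement solution; europium counts give IC50.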
row,SMILES,IC50
1,"Cc1nc(N)nc2c1C(=O)CC(c1ccccc1-c1ccccc1C(F)(F)F)C2 (stereo not shown) [Compound 109, 2-amino-4-methyl-7-[2′-(trifluoromethyl)-1,1′-biphenyl-2-yl]-7,8-dihydroquinazolin-5(6H)-one]",< 1000 nM
2,"Cc1nc(N)nc2c1C(=O)CC(c1cccc(C(N)=O)c1)C2 (stereo not shown) [Compound 166, 3-(2-amino-4-methyl-5-oxo-5,6,7,8-tetrahydroquinazolin-7-yl)benzamide]",> 10000 nM
3,"Cc1nc(N)nc2c1C(=O)CC(c1cccnc1Cl)C2 (stereo not shown) [Compound 4, 2-amino-7-(2-chloropyridin-3-yl)-4-methyl-7,8-dihydroquinazolin-5(6H)-one]",> 10000 nM
4,"Cc1nc(N)nc2c1C(=O)CC(c1nn(C)cc1C1CCCCC1)C2 (stereo not shown) [Compound 47, 2-amino-7-(4-cyclohexyl-1-methyl-1H-pyrazol-3-yl)-4-methyl-7,8-dihydro-6H-quinazolin-5-one]",< 1000 nM
5,"Cc1nc(N)nc2c1C(=O)CC(c1ccccc1C1=CCCC1)C2 (stereo not shown) [Compound 40, 2-amino-7-(2-cyclopent-1-en-1-ylphenyl)-4-methyl-7,8-dihydroquinazolin-5(6H)-one]",< 1000 nM
6,"Cc1nc(N)nc2c1C(=O)CC(c1c(O)cccc1C1=CCCCC1)C2 (stereo not shown) [Compound 62, 2-amino-7-(2-cyclohex-1-enyl-6-hydroxy-phenyl)-4-methyl-7,8-dihydro-6H-quinazolin-5-one]",< 1000 nM
7,"Cc1nc(N)nc2c1C(=O)CC(c1ccccc1-c1ccccc1Oc1ccccc1)C2 (stereo not shown) [Compound 113, 2-amino-4-methyl-7-(2′-phenoxy-1,1′-biphenyl-2-yl)-7,8-dihydroquinazolin-5(6H)-one]",< 1000 nM
8,"Cc1nc(N)nc2c1C(=O)CC(c1ccccc1-c1cccc(NS(C)(=O)=O)c1)C2 (stereo not shown) [Compound 114, N-[2′-(2-amino-4-methyl-5-oxo-5,6,7,8-tetrahydroquinazolin-7-yl)-1,1′-biphenyl-3-yl]methanesulfonamide]",1000 to 10000 nM
9,"Cc1nc(N)nc2c1C(=O)CC(c1cccnc1C1=CCCCC1)C2 (stereo not shown) [Compound 45, 2-amino-7-(2-cyclohex-1-en-1-ylpyridin-3-yl)-4-methyl-7,8-dihydroquinazolin-5(6H)-one]",< 1000 nM
10,"Cc1nc(N)nc2c1C(=O)CC(c1ccc(F)cc1C1CCCCC1)C2 (stereo not shown) [Compound 172, 2-amino-7-(2-cyclohexyl-4-fluorophenyl)-4-methyl-7,8-dihydroquinazolin-5(6H)-one]",1000 to 10000 nM
11,"COc1cccc(-c2cccc(OC)c2C2CC(=O)c3c(C)nc(N)nc3C2)n1 (stereo not shown) [Compound 132, 2-amino-7-[2-methoxy-6-(6-methoxy-pyridin-2-yl)-phenyl]-4-methyl-7,8-dihydro-6H-quinazolin-5-one]",< 1000 nM
12,"Cc1nc(N)nc2c1C(=O)CC(c1c(C3CCCCC3)cnn1C)C2 (stereo not shown) [Compound 48, 2-amino-7-(4-cyclohexyl-2-methyl-2H-pyrazol-3-yl)-4-methyl-7,8-dihydro-6H-quinazolin-5-one]",< 1000 nM
13,"Cc1nc(N)nc2c1C(=O)CC(c1ccccc1-c1ccccc1CO)C2 (stereo not shown) [Compound 68, 2-amino-7-[2′-(hydroxymethyl)-1,1′-biphenyl-2-yl]-4-methyl-7,8-dihydroquinazolin-5(6H)-one]",< 1000 nM
14,"COc1cccc(-c2ccccc2CO)c1C1CC(=O)c2c(C)nc(N)nc2C1 (stereo not shown) [Compound 105, 2-amino-7-[2′-(hydroxymethyl)-3-methoxy-1,1′-biphenyl-2-yl]-4-methyl-7,8-dihydroquinazolin-5(6H)-one]",< 1000 nM
15,"Cc1nc(N)nc2c1C(=O)CC(c1cccnc1-c1ccccn1)C2 (stereo not shown) [Compound 33, 2-amino-7-(2,2′-bipyridin-3-yl)-4-methyl-7,8-dihydroquinazolin-5(6H)-one]",1000 to 10000 nM
16,"Cc1nc(N)nc2c1C(=O)CC(c1ccc(Cl)cc1Cl)C2 (stereo not shown) [Compound 6, 2-amino-7-(2,4-dichlorophenyl)-4-methyl-7,8-dihydroquinazolin-5(6H)-one]",1000 to 10000 nM
17,"Cc1nc(N)nc2c1C(=O)CC(c1ccccc1C1CCCCC1)C2 (stereo not shown) [Compound 171, 2-amino-7-(2-cyclohexylphenyl)-4-methyl-7,8-dihydroquinazolin-5(6H)-one]",< 1000 nM
18,"Cc1nc(N)nc2c1C(=O)CC(c1ccccc1Br)C2 (stereo not shown) [Compound 8, 2-amino-7-(2-bromophenyl)-4-methyl-7,8-dihydroquinazolin-5(6H)-one]",1000 to 10000 nM

# The remaining lines, values ahead:
row,IC50,SMILES
1,< 1000 nM,"Cc1nc(N)nc2c1C(=O)CC(c1ccccc1-c1cnccn1)C2 (stereo not shown) [Compound 31, 2-amino-4-methyl-7-(2-pyrazin-2-ylphenyl)-7,8-dihydroquinazolin-5(6H)-one]"
2,< 1000 nM,"COc1cccc(-c2cccnc2F)c1C1CC(=O)c2c(C)nc(N)nc2C1 (stereo not shown) [Compound 97, 2-amino-7-[2-(2-fluoropyridin-3-yl)-6-methoxyphenyl]-4-methyl-7,8-dihydroquinazolin-5(6H)-one]"
3,< 1000 nM,"Cc1nc(N)nc2c1C(=O)CC(c1ccccc1Oc1cccc(F)c1)C2 (stereo not shown) [Compound 137, 2-amino-7-[2-(3-fluorophenoxy)phenyl]-4-methyl-7,8-dihydroquinazolin-5(6H)-one]"
4,< 1000 nM,"Cc1ncccc1-c1ccccc1C1CC(=O)c2c(C)nc(N)nc2C1 (stereo not shown) [Compound 116, 2-amino-4-methyl-7-[2-(2-methylpyridin-3-yl)phenyl]-7,8-dihydroquinazolin-5(6H)-one]"
5,1000 to 10000 nM,"COc1cccc(-c2ccccc2C2CC(=O)c3c(C)nc(N)nc3C2)c1 (stereo not shown) [Compound 69, 2-amino-7-(3′-methoxy-1,1′-biphenyl-2-yl)-4-methyl-7,8-dihydroquinazolin-5(6H)-one]"
6,1000 to 10000 nM,"Cc1cccnc1-c1ccccc1C1CC(=O)c2c(C)nc(N)nc2C1 (stereo not shown) [Compound 120, 2-amino-4-methyl-7-[2-(3-methylpyridin-2-yl)phenyl]-7,8-dihydroquinazolin-5(6H)-one]"
7,< 1000 nM,"Cc1nc(N)nc2c1C(=O)CC(c1ccccc1Oc1ccccn1)C2 (stereo not shown) [Compound 141, 2-amino-4-methyl-7-[2-(pyridin-2-yloxy)phenyl]-7,8-dihydroquinazolin-5(6H)-one]"

# Same assay, conditions: Table II; read-out: Hsp90 IC50 Range
row,SMILES,IC50
1,"COc1cncc(-c2ccc(F)cc2C2CC(=O)c3c(C)nc(N)nc3C2)n1 (stereo not shown) [Compound 286, 2-amino-7-[5-fluoro-2-(6-methoxy-pyrazin-2-yl)-phenyl]-4-methyl-7,8-dihydro-6H-quinazolin-5-one]",1000 to 10000 nM
2,"Nc1nc(Cc2cccc([N+](=O)[O-])c2)c2c(n1)CC(c1ccccc1)CC2=O (stereo not shown) [Compound 308, 2-amino-4-(3-nitro-benzyl)-7-phenyl-7,8-dihydro-6H-quinazolin-5-one]",> 10000 nM
3,"Cc1nc(N)nc2c1C(=O)CC(c1ccc(F)cc1OC1CCCC1C)C2 (stereo not shown) [Compound 268, 2-amino-7-[4-fluoro-2-(2-methyl-cyclopentyloxy)-phenyl]-4-methyl-7,8-dihydro-6H-quinazolin-5-one]",< 1000 nM
4,"Cc1nc(N)nc2c1C(=O)C[C@H](c1ccc(F)cc1-c1cccc(F)n1)C2 [Compound 213, (R)-2-amino-7-[4-fluoro-2-(6-fluoro-pyridin-2-yl)-phenyl]-4-methyl-7,8-dihydro-6H-quinazolin-5-one]",1000 to 10000 nM
5,"Cc1nc(N)nc2c1C(=O)CC(c1cc(F)ccc1-c1cncnc1)C2 (stereo not shown) [Compound 284, 2-amino-7-(5-fluoro-2-pyrimidin-5-yl-phenyl)-4-methyl-7,8-dihydro-6H-quinazolin-5-one]",> 10000 nM
6,"COc1cccc(-c2ccccc2C2CC(=O)c3c(C)nc(N)nc3C2)c1F (stereo not shown) [Compound 235, 2-amino-7-(2′-fluoro-3′-methoxy-biphenyl-2-yl)-4-methyl-7,8-dihydro-6H-quinazolin-5-one]",1000 to 10000 nM
7,"COc1nc(-c2cc(F)ccc2C2CC(=O)c3c(C)nc(N)nc3C2)ncc1Cl (stereo not shown) [Compound 272, 2-amino-7-[2-(5-chloro-4-methoxy-pyrimidin-2-yl)-4-fluoro-phenyl]-4-methyl-7,8-dihydro-6H-quinazolin-5-one]",< 1000 nM
8,"Cc1nc(N)nc2c1C(=O)CC(c1ccc(F)cc1-c1ncc(C(F)(F)F)cn1)C2 (stereo not shown) [Compound 270, 2-amino-7-[4-fluoro-2-(5-trifluoromethyl-pyrimidin-2-yl)-phenyl]-4-methyl-7,8-dihydro-6H-quinazolin-5-one]",< 1000 nM
9,"Cc1nc(N)nc2c1C(=O)CC(c1ncccc1OC(C)C)C2 (stereo not shown) [Compound 175, 2-amino-7-(3-isopropoxy-pyridin-2-yl)-4-methyl-7,8-dihydro-6H-quinazolin-5-one]",< 1000 nM

# The next lines start with the values.
row,IC50,SMILES
1,1000 to 10000 nM,"COc1cccc(-n2ccnc2C2CC(=O)c3c(C)nc(N)nc3C2)c1 (stereo not shown) [Compound 190, 2-amino-7-[1-(3-methoxy-phenyl)-1H-imidazol-2-yl]-4-methyl-7,8-dihydro-6H-quinazolin-5-one]"
2,< 1000 nM,"COc1nc(-n2ccnc2C2CC(=O)c3c(C)nc(N)nc3C2)ncc1C (stereo not shown) [Compound 206, 2-amino-7-[1-(4-methoxy-5-methyl-pyrimidin-2-yl)-1H-imidazol-2-yl]-4-methyl-7,8-dihydro-6H-quinazolin-5-one]"
3,< 1000 nM,"COc1ccc(F)c(-c2cc(F)ccc2C2CC(=O)c3c(C)nc(N)nc3C2)c1 (stereo not shown) [Compound 186, 2-amino-7-(5,2′-difluoro-5′-methoxy-biphenyl-2-yl)-4-methyl-7,8-dihydro-6H-quinazolin-5-one]"
4,1000 to 10000 nM,"COc1cccc(-c2cc(F)ccc2[C@H]2CC(=O)c3c(C)nc(N)nc3C2)n1 [Compound 260, (R)-2-amino-7-[4-fluoro-2-(6-methoxy-pyridin-2-yl)-phenyl]-4-methyl-7,8-dihydro-6H-quinazolin-5-one]"
5,1000 to 10000 nM,"COc1cc(Cl)c(C)cc1-n1ccnc1C1CC(=O)c2c(C)nc(N)nc2C1 (stereo not shown) [Compound 330, 2-amino-7-[1-(4-chloro-2-methoxy-5-methyl-phenyl)-1H-imidazol-2-yl]-4-methyl-7,8-dihydro-6H-quinazolin-5-one]"
6,1000 to 10000 nM,"Cc1nc(N)nc2c1C(=O)CC(c1nccn1-c1ccc(Cl)cc1F)C2 (stereo not shown) [Compound 328, 2-amino-7-[1-(4-chloro-2-fluoro-phenyl)-1H-imidazol-2-yl]-4-methyl-7,8-dihydro-6H-quinazolin-5-one]"
